The assay concerns nisin sensitive strain. Description: agar well (halo) assay for antibacterial activity. The format is cell-based. As to conditions: Example 5: trypsin-treated ziptipped material/crude supernatant of E. coli SF120 with NisABTC. How it is done:
The above ZIPTIPPED™ material and the crude supernatant is treated after outer membrane disruption with trypsin. This material is applied to the agar well assay to determine antibacterial activity.
Materials and methods. […] NZ9000+pNG-NisABTC were grown and induced. The supernatant is analyzed as in Example 1. Trypsin treated supernatant was subjected to the agar well assay by pouring the trypsinated supernatant in an agar well and overlaying with a nisin sensitive strain.
The mutation was checked by PCR and sequencing. The above-generated ΔNisP strain was grown overnight in M17 medium (Terzaghi and Sandine, 1975, Appl. Microbiol. 29: 807-813), diluted 100 fold and grown to OD600 equal to 0.4. […] After 1, 2 and 3 hours, more 0.2 mM pmsf, 0.2 mM TPCK are added and followed by overnight incubation. […] Elution and experiments a) and b).

For the substance nisin, the “antimicrobial activity in the agar well assay” value is reported as “antimicrobial activity”.

Source of the values: patent US6861236B2, “Export and modification of (poly)peptides in the lantibiotic way” (Applied Nanosystems B.V., priority 2002, dated 2005).
